Values quoted from earlier work in patent US11225464B2, “Compositions and methods for the treatment of gastrointestinal polyps” (CELLIX BIO PRIVATE LIMITED, priority 2016, dated 2022).

Columns and labels:
colorectal adenomas = conditions: FAP patients; long-term use; colon as well as rectum of patients after colectomy
duodenal adenomas = conditions: FAP patients
[1] = long-term users

SMILES	reduction of the number of colorectal adenomas (colorectal adenomas)	effect on duodenal polyposis / number of duodenal adenomas (duodenal adenomas)	cardiovascular effects [1]
CC1=C(CC(=O)O)c2cc(F)ccc2/C1=C\c1ccc([S+](C)[O-])cc1 (stereo not drawn) [sulindac]	> 50%	not in duodenal polyposis	–
CS(=O)(=O)c1ccc(C2=C(c3ccccc3)C(=O)OC2)cc1 [rofecoxib]	–	–	cardiovascular effects (myocardial infarction or stroke) have been described
